From patent US20180028681A1, “COMBINATION THERAPY USING A CD19-ADC AND VINCRISTINE” (SEATTLE GENETICS, INC., priority 2015, published 2018)

B1: SGN-CD19A: CD19-directed antibody-drug conjugate: humanized antibody hBU12, maleimidocaproyl linker, monomethyl auristatin F (MMAF); average four drugs per antibody (conjugate)
VL: EIVLTQSPATLSLSPGERATLSCSASSSVSYMHWYQQKPGQAPRLLIYDTSKLASGIPARFSGSGSGTDFTLTISSLEPEDVAVYYCFQGSVYPFTFGQGTKLEIKR
VH: QVQLQESGPGLVKPSQTLSLTCTVSGGSISTSGMGVGWIRQHPGKGLEWIGHIWWDDDKRYNPALKSRVTISVDTSKNQFSLKLSSVTAADTAVYYCARMELWSYYFDYWGQGTLVTVSS

Key:
Assay type in all cases: in vivo, mouse
NALM-6 = conditions: C.B-17 SCID mice; treatment 7 days post implant; SGN-CD19A single dose 1.0 mg/kg; cyclophosphamide 30, vincristine 0.375, doxorubicin 2.475 mg/kg single iv; dexamethasone 15 mg/kg ip daily x5; survivors sacrificed at 133 days
Method: (§1) Establishment of cell line xenografts: NALM-6 (DSMZ, Braunschweig, Germany) and RS4; 11 (ATCC, Manassas, Va.) cell lines were cultured in RPMI 1640 media, supplemented with Heat Inactivated Fetal Bovine serum (10%) and Penicillin/Streptomycin(1%) (Gibco, Grand Island, N.Y.). Cells were maintained in a humidified atmosphere at 37° C. and 5% CO2. For NALM-6 cell implantation, 1.0×10^5 cells in 200 ul PBS were injected into the tail vein of female C.B-17 SCID (Harlan Laboratories, Livermore, Calif.) mice. Mice were randomly assigned to treatment groups and treatment was given seven days post cell implant. For RS4; 11 cell implantation, 1.8×10^6 cells in 200 ul PBS were implanted into the tail vein of female C.B-17 SCID mice. Mice were randomly assigned to treatment groups. Treatment was given one day post cell implant. Treatment in the NALM-6 consisted of a single dose of SGN-CD19A at 1.0 mg/kg; in RS4; 11, SGN-CD19A was given once every four days for four doses at 0.3 mg/kg. Cyclophosphamide, 30 mg/kg (Baxter, Deefield, Ill.), Vincristine, 0.375 mg/kg (Hospira, Lake Forest, Ill.), and Doxorubicin, 2.475 mg/kg (Pfizer, NY, NY) were combined and administered as a single dose via intravenous injection into the lateral tail vein. Dexamethasone, 15 mg/kg (APP Pharmaceuticals, Schaumberg, Ill.), was given daily for five days via intraperitoneal injection. For each xenograft model, mice were monitored daily and body weights were collected at least once per week. Mice were removed from experiment at the onset of clinical disease signs (hind limb weakness, piloerection, hunched posture) or weight loss in excess of 20% of initial body weight.
(§2) Cell line-derived xenografts were used to investigate the median survival time for the combination of SGN-CD19A and CVAD, as well as SGN-CD19A and each of the components of CVAD. Either NALM-6 or Rs4; 11 cells were implanted into CB-17 SCID mice. Ten mice were assigned to each treatment group. […] SGN-CD19A and CVAD were administered at sub-optimal doses. Results are shown in FIGS. 4A and 4B and Tables 1 and 2. […] For the Rs4; 11 experiment, the experiment was terminated on day 154.

RS4; 11 = conditions: C.B-17 SCID mice; treatment 1 day post implant; SGN-CD19A 0.3 mg/kg every four days x4; cyclophosphamide 30, vincristine 0.375, doxorubicin 2.475 mg/kg single iv; dexamethasone 15 mg/kg ip daily x5; terminated day 154
Method: as §1, §2

[1] = test system: ALL patient donor 06343 xenograft; assay: Disease burden (blast cells) in bone marrow, patient-derived ALL xenograft donor 06343; conditions: for Disease Burden in Bone Marrow, CD45/10% Mean: NOD-scid IL2Rγ null mice, dosed at 38% blasts in sentinels, bone marrow counts day 14 post-dose
Excerpt: Establishment of patient-derived xenografts: NOD-scid IL2Rγ null mice were used as hosts for patient-derived xenografts. Twenty-four hours prior to cell implant, mice received 1.0 Gy irradiation using a Radsource 2000 irradiator (Radsource technologies, Suwanee, Ga.). Frozen bone marrow isolates of mononuclear cells from patients with acute lymphoblastic leukemia were obtained from […] (Alameda, Calif.). Cells were thawed in a warm water bath. After thaw, RPMI-1640 media was slowly added to the bone marrow isolate suspension. The cells were washed with PBS and centrifuged to remove DMSO in freezing media. After centrifugation, the cells were suspended in PBS. For, implantation, 3.6×10^6 cells were injected into the tail vein of female NOD-scid IL2Rγ null mice designated as donor, or passage 0 mice. Approximately 7 weeks after implant, mice were euthanized. Bone marrow and spleen were collected using sterile technique. Spleens were mechanically disrupted using a sterile syringe end and mesh filter. Connective tissues from spleens were filtered out using 40um filters. Splenocytes and bone marrow cells were treated with red blood cell buffer lysis (BD lysis buffer, BD biosciences, San Jose, Calif.) for 15 minutes at room temperature. A sample of the cells was utilized for confirmation of engraftment. The percentage of blast cells was determined by the number of CD45 FITC, CD19 PE-Cy.5 (BD Biosciences, San Jose, Calif.) CD10 APC (Biolegend, San Diego, Calif.) triple positive cells via flow cytometry (FACScalibur, BD Biosciences, San Jose, Calif.). The majority of the cells (passage 1) were placed into freezing media (90% Heat inactivated fetal bovine serum and 10% DMSO). Subsequent xenograft experiments utilized passage 1 cells. Cells were implanted in the same manner done for donor mice (passage 0 mice). Starting 14-21 days post implant, 2-3 sentinel mice were euthanized to determine the percentage blast cells in the bone marrow. Once the percentage of blast cells was at 25-50% of the bone marrow mononuclear cells mice were randomly placed into treatment groups. SGN-CD19A and non-specific ADC (also called h00-1269) were administered as a single intraperitoneal injection at 1.0, 3.0, or 10.0 mg/kg dose. Cyclophosphamide at 15 or 30 mg/kg (Baxter, Deefield, Ill.), Vincristine at 0.188 or 0.375 mg/kg (Hospira, Lake Forest, Ill.), and Doxorubicin at 1.24 or 2.475 mg/kg (Pfizer, NY, NY) were combined and administered as a single dose via intravenous injection into the lateral tail vein. Dexamethasone at 7.5 or 15 mg/kg (APP Pharmaceuticals, Schaumberg, Ill.) was given daily via intraperitoneal injection for five days. At pre-determined times post treatment, mice were euthanized for collection of bone marrow and determination of blast cell percentage via flow cytometry.
The response of human patient-derived ALL cells to single agent SGN-CD19A or CVAD was determined in mouse xenograft models. Bone marrow isolates from patients with ALL (donor 06343 and donor 90811) were used to establish xenografts in NOD-scid IL2Rgamma^null mice. After engraftment, patient-derived bone marrow cells were frozen and are referred to as passage 1 cells. Passage 1 cells were implanted into mice and assessed for presence of blast cells (CD45/CD10/CD19 positive cells). After blast cells were between 25-50% of the bone marrow, mice were placed in treatment groups (n=3 mice per time point). Mice were given either 1, 3, or 10 mg/kg of SGN-CD19A or 10 mg/kg of a non-specific ADC conjugated to MMAF (also called h00-1269). A maximum tolerated dose (MTD) of CVAD had previously been determined in the same mouse strain. Mice were given either CVAD at the MTD or at 50% of the MTD.
The response of human patient-derived ALL cells to the combination of SGN-CD19A and CVAD was also determined in the mouse xenograft model. Patient samples were engrafted as described above.

Molecule	Median Survival (NALM-6) [days]	Median Survival (RS4; 11) [days]	Disease Burden in Bone Marrow, CD45/10% Mean [1] [%]	single agent dose response, blast cells in the bone marrow ([1]; SGN-CD19A 1, 3 or 10 mg/kg, CVAD at MTD or 50% of MTD, FIGS. 2A, 2C)
C[C@@H]1C[C@H]2[C@@H]3CCC4=CC(=O)C=C[C@]4(C)[C@@]3(F)[C@@H](O)C[C@]2(C)[C@@]1(O)C(=O)CO [Dexamethasone]	39	80	82.5	
O=P1(N(CCCl)CCCl)NCCCO1 (stereo not shown) [Cyclophosphamide]	38	58	90	
COc1cccc2c1C(=O)c1c(O)c3c(c(O)c1C2=O)C[C@@](O)(C(=O)CO)C[C@@H]3O[C@H]1C[C@H](N)[C@H](O)[C@H](C)O1 [Doxorubicin]	44	62	69.2	
CC[C@]1(O)C[C@H]2CN(CCc3c([nH]c4ccccc34)[C@@](C(=O)OC)(c3cc4c(cc3OC)N(C=O)[C@H]3[C@@](O)(C(=O)OC)[C@H](OC(C)=O)[C@]5(CC)C=CCN6CC[C@]43[C@@H]65)C2)C1 [Vincristine]	47	79	69.1	
B1	55	85	92.5	decreasing amounts of blast cells in the bone marrow
